Patent US6391902B1, “Substituted benzofuranoindoles and indenoindoles as novel potassium channel openers” (American Home Products Corporation, priority 1998, dated 2002)

Experiments:
Bladder Tissue = assay: Relaxation of KCl-stimulated isolated rat bladder strips (contractile activity); parameters: species or system Sprague-Dawley rats; settings: Rattus norvegicus, 0.5 h
Protocol: Sprague-Dawley rats (150-200 g) are rendered unconscious by CO2 asphyxiation and then euthanized by cervical dislocation. The bladder is removed into warm (37° C.) physiological salt solution (PSS) of the following composition (mM): NaCl, 118.4; KCl, 4.7; CaCl2, 2.5; […]; NaHCO3, 24.9; KH2PO4, 1.2; glucose, 11.1; EDTA, 0.023; gassed with 95% O2; […]; pH 7.4. The bladder is opened and then cut into strips 1-2 mm in width and 7-10 mm in length. The strips are subsequently suspended in a 10 mL tissue bath under an initial resting tension of 1.5 g. The strips are held in place by two surgical clips one of which is attached to a fixed hook while the other is attached to an isometric force transducer. […] The carbachol is then washed out and the tissue allowed to relax to its resting level of activity. Following a further 30 min period of recovery an additional 15 mM KCl re introduced into the tissue bath. […] Following stabilization of this enhanced level of contractile activity, incremental increases in the concentration of test compound or vehicle are introduced into the tissue bath. Contractile activity is measured for each compound or vehicle concentration during the last minute of a 30 minute challenge.

Aorta Tissue = assay: Relaxation of KCl-contracted isolated rat thoracic aortic rings (contractile force); parameters: species or system Sprague-Dawley rats
Protocol: The smooth muscle (aorta) relaxing activity of the compounds of this ivention was established in accordance with standard pharmaceutically accepted test procedures with representative compounds as follows.
Male Sprague-Dawley rats (150-200 g) are rendered unconscious by CO2 asphyxiation and then euthanized by cervical dislocation. The thoracic aorta is removed into warm (37° C.) physiological sial solution (PSS) of the following composition (mM): NaCl, 118.4; KCl, 4.7; CaCl2, 2.5; MgSO4.7H2O, 1.2; NaHCO3, 24.9; KH2PO4, 1.2; glucose, 11.1; EDTA, 0.023; gassed with 95% O2/5% CO2; pH 7.4. The aorta is cleaned of fat and loose adventitia and cut into rings 3-4 mm in width. The rings are subsequently suspended between two stainless steel wire tissue holders in a 10 mL tissue bath. One wire tissue holder is attached to a fixed hook while the other is attached to an isometric force transducer. Resting tension is set at 1 g. The tissues are to recover for a period of 60 min prior to beginning the experiment. Tissues are challenged with PSS containing 25 mM KCl to elicit a contracture. The tissues are then washed repeatedly with fresh PSS over a period of 30 min and allowed to recover to baseline tension. PSS containing 30-35 mM KCl is then introduced into the tissue bath to evoke a contracture that is allowed to stabilize for not less than 45 min. (Other stimuli such as norepinephrine, PGF2a, histamine, angiotensin II, endothelin or PSS containing 80 mM KCl may also be used to evoke a contracture as necessary). Increasing concentrations of test compound or vehicle are then added to the tissue bath in a cumulative fashion.
Isometric force development by the aortic rings is measured using a force transducer and recorded on a polygraph. The percentage inhibition of contractile force evoked by each concentration of a given test compound is used to generate a concentration-response curve. […] [Log concentration versus response curves are approximately linear between 20% and 80% of the maximum response. As such, the IC50 concentration of the drug is determined by linear regression analysis (where x=log concentration and y=% inhibition) of the data points in the 20% to 80% region of the curve.] […] Data collected from 2 animals are averaged for primary screens.

whole rat bladder = assay: Relaxation of whole rat bladder ex-vivo (partial outlet obstruction, developed bladder pressure); parameters: species or system Spraque-Dawley rats; settings: isolated whole bladder of rats 6 weeks after partial outlet obstruction, 30 minute challenge
Protocol: Several compound in this invention were tested for their ability to relax a whole rat bladder ex-vivo. The protocol for this assay is as follows.
Female Spraque-Dawley rats weighing between 200-300 g were anesthetized with Nembutol® (50 mg/kg, i.p.). After achieving adequate anesthesia, the bladder and urethra were exposed through a mid-line incision. A 4-0 silk ligature was tied around the proximal end of the urethra in the presence of a 1 mm diameter stainless steel rod. The rod was then removed resulting in a partial outlet obstruction. The wound was closed with surgical staples and the animals received 15,000 units of Bicillin® antibiotic. After a 6 week period the animals were asphyxiated with CO2 gas. Bladders for contractile analysis were placed in a physiological salt solution (PSS) at 37° C. of the following composition (in mM): NaCl (118.4), KCl (4.7), CaCl2 (2.5), MgSO4 (1.2), KH2PO4 (1.2), NaHCO3 (24.9) and D-glucose (11.1) gassed with […] to achieve a pH of 7.4.
The isolated bladders were secured through the urethral opening with a silk ligature to a length of polyethylene tubing (PE-200). […]
Following stabilization, incremental increases in the concentration of test compound or vehicle are introduced into the tissue bath. Contractile activity is measured for each compound or vehicle concentration during the last minute of a 30 minute challenge.

For `CC1(C)c2ccc([N+](=O)[O-])cc2-c2[nH]c3c(C(=O)O)cccc3c21` [Example 24, 10,10-Dimethyl-3-nitro-5,10-dihydro-indeno[1,2-b]indole-6-carboxylic acid], the IC50 (Bladder Tissue) was 5.2 ± 1.8 µM, the IC50 (Aorta Tissue; Rattus norvegicus) was 17.2 ± 2.3 µM and the “Ratio Aorta IC50 / Bladder IC50” value (Aorta Tissue; aorta IC50 divided by bladder IC50, tissue selectivity) was 3.3. The IC50 (whole rat bladder) was 5 µM and the melting point was 310 °C (dec.).
